In brackets after ≈: the same amount, converted by molar mass.
Legend:
Assay type in all cases: functional
[1] = system: Mycobacterium tuberculosis; assay: AntiMycobacterium tuberculosis activity 1-week GAST/Fe MIC (uM); details: 168 h
[2] = system: Mycobacterium tuberculosis; assay: AntiMycobacterium tuberculosis activity day 21 MIC99 in 7H9/2.5mM butyrate/pH6/0.1mM nitrite MIC99 (uM); details: 504 h
[3] = system: Mycobacterium tuberculosis; assay: AntiMycobacterium tuberculosis activity 2-week 7H9/DPPC/cholesterol/BSA/Tx MIC (uM); details: 336 h
[4] = system: Mycobacterium tuberculosis; assay: AntiMycobacterium tuberculosis activity 2-week 7H9/ADC/Tw MIC (uM); details: 336 h
[5] = system: Mycobacterium tuberculosis; assay: AntiMycobacterium tuberculosis activity Replicating form: Average MIC90 (uM)
HepG2 = assay: HepG2 CC50 (uM) Cytotoxicity; details: Homo sapiens
[6] = system: Mycobacterium tuberculosis; assay: AntiMycobacterium tuberculosis activity 2-week Alamar Blue 7H9/ADC/Tw MIC (uM); details: 336 h
[7] = system: Mycobacterium tuberculosis; assay: AntiMycobacterium tuberculosis activity 1-week 7H9/DPPC/cholesterol/BSA/Tx MIC (uM); details: 168 h
[8] = system: Mycobacterium tuberculosis; assay: AntiMycobacterium tuberculosis activity 1-week 7H9/cholesterol/BSA/Tx MIC (uM); details: 168 h
[9] = system: Mycobacterium tuberculosis; assay: AntiMycobacterium tuberculosis activity 2-week Alamar Blue 7H9/cholesterol/BSA/Tx MIC (uM); details: 336 h
[10] = system: Mycobacterium tuberculosis; assay: AntiMycobacterium tuberculosis activity 1-week 7H9/ADC/Tw MIC (uM); details: 168 h
[11] = system: Mycobacterium tuberculosis; assay: AntiMycobacterium tuberculosis activity 2-week 7H9/glucose/BSA/Tx MIC (uM); details: 336 h
[12] = system: Mycobacterium tuberculosis; assay: (§1) AntiMycobacterium tuberculosis activity day 10 in 7H9/2.5mM butyrate/pH6/0.1mM nitrite MIC90 (uM); details: 240 h
[13] = system: Mycobacterium tuberculosis; assay: AntiMycobacterium tuberculosis activity 2-week GAST/Fe MIC (uM); details: 336 h
[14] = system: Mycobacterium tuberculosis; assay: AntiMycobacterium tuberculosis activity Non-Replicating form: Average MIC90 (uM)
[15] = system: Mycobacterium tuberculosis; assay: as §1; details: 240 h; remark: listed apart in the source
[16] = system: Mycobacterium tuberculosis; assay: AntiMycobacterium tuberculosis activity 1-week 7H9/glucose/BSA/Tx MIC (uM); details: 168 h
[17] = system: Mycobacterium tuberculosis; assay: AntiMycobacterium tuberculosis activity day 21 in 7H9/2.5mM butyrate/pH6/0.1mM nitrite MIC90 (uM); details: 504 h

Compound	MIC [1] [µM]	MIC [2] [µM]	MIC [3] [µM]	MIC [4] [µM]	MIC90 [5] [µM]	CC50 (HepG2) [µM]	MIC [6] [µM]	MIC [7] [µM]	MIC [8] [µM]	MIC [9] [µM]	MIC [10] [µM]	MIC [11] [µM]	MIC90 [12] [µM]	MIC [13] [µM]	MIC90 [14] [µM]	MIC90 [15] [µM]	MIC [16] [µM]	MIC90 [17] [µM]
CC1=NN(c2nc3ccccc3s2)C(=O)C1Cc1cccc2ccccc12 (configuration not stated)	1.56 (≈ 0.579 µg/mL)	12.5 (≈ 4.64 µg/mL)	12.5 (≈ 4.64 µg/mL)	25 (≈ 9.29 µg/mL)	96.7 (≈ 35.9 µg/mL)	21.9	25 (≈ 9.29 µg/mL)	12.5 (≈ 4.64 µg/mL)	12.5 (≈ 4.64 µg/mL)	19 (≈ 7.06 µg/mL)	19 (≈ 7.06 µg/mL)	12.5 (≈ 4.64 µg/mL)	6.25 (≈ 2.32 µg/mL)	3.13 (≈ 1.16 µg/mL)	> 100	12.5 (≈ 4.64 µg/mL)	12.5 (≈ 4.64 µg/mL)	12.5 (≈ 4.64 µg/mL)
Cn1ccnc1CNCCS(=O)(=O)c1cccc(Nc2ccc(-c3cccc(F)c3)cn2)c1	25 (≈ 11.6 µg/mL)	> 50	≥ 50	> 50	> 100	46.1	> 50	12.5 (≈ 5.82 µg/mL)	25 (≈ 11.6 µg/mL)	37 (≈ 17.2 µg/mL)	50 (≈ 23.3 µg/mL)	> 50	> 50	25 (≈ 11.6 µg/mL)	> 100	> 50	19 (≈ 8.85 µg/mL)	> 50
Nc1cccnc1Nc1ccc(Cl)cc1	50 (≈ 11 µg/mL)	> 50	19 (≈ 4.17 µg/mL)	> 50	4.3 (≈ 0.945 µg/mL)	9	37 (≈ 8.13 µg/mL)	12.5 (≈ 2.75 µg/mL)	9.4 (≈ 2.06 µg/mL)	4.7 (≈ 1.03 µg/mL)	> 50	50 (≈ 11 µg/mL)	12.5 (≈ 2.75 µg/mL)	50 (≈ 11 µg/mL)	3.65 (≈ 0.802 µg/mL)	> 50	50 (≈ 11 µg/mL)	50 (≈ 11 µg/mL)
Cc1ccc(NC(=O)CC2COc3ccccc3O2)cc1Cl (configuration not stated)	9.4 (≈ 2.99 µg/mL)	> 50	37 (≈ 11.8 µg/mL)	50 (≈ 15.9 µg/mL)	53.8 (≈ 17.1 µg/mL)	66.7	50 (≈ 15.9 µg/mL)	19 (≈ 6.04 µg/mL)	19 (≈ 6.04 µg/mL)	25 (≈ 7.94 µg/mL)	37 (≈ 11.8 µg/mL)	25 (≈ 7.94 µg/mL)	50 (≈ 15.9 µg/mL)	12.5 (≈ 3.97 µg/mL)	56.9 (≈ 18.1 µg/mL)	> 50	19 (≈ 6.04 µg/mL)	50 (≈ 15.9 µg/mL)
CC(C)(C)c1cnc(NC(=O)c2ccccc2O)s1	19 (≈ 5.25 µg/mL)	> 50	> 50	> 50	81.9 (≈ 22.6 µg/mL)	47.6	> 50	> 50	> 50	> 50	> 50	> 50	50 (≈ 13.8 µg/mL)	25 (≈ 6.91 µg/mL)	21 (≈ 5.81 µg/mL)	> 50	> 50	50 (≈ 13.8 µg/mL)
O=C(Nc1ccc(C(F)(F)F)c(C(F)(F)F)c1)c1cc(Cl)ccc1O	1.56 (≈ 0.599 µg/mL)	1.5 (≈ 0.576 µg/mL)	3.13 (≈ 1.2 µg/mL)	4.7 (≈ 1.8 µg/mL)	2.33 (≈ 0.894 µg/mL)	0.7	4.7 (≈ 1.8 µg/mL)	2.3 (≈ 0.882 µg/mL)	1.56 (≈ 0.599 µg/mL)	1.56 (≈ 0.599 µg/mL)	3.13 (≈ 1.2 µg/mL)	3.13 (≈ 1.2 µg/mL)	1.5 (≈ 0.576 µg/mL)	2.3 (≈ 0.882 µg/mL)	0.1 (≈ 0.0384 µg/mL)	1.5 (≈ 0.576 µg/mL)	1.56 (≈ 0.599 µg/mL)	1.5 (≈ 0.576 µg/mL)
O=C(CCC1CCCCC1)Nc1cccc(-c2nnc(-c3ccco3)o2)c1	1.2 (≈ 0.439 µg/mL)	1.5 (≈ 0.548 µg/mL)	3.13 (≈ 1.14 µg/mL)	2.3 (≈ 0.84 µg/mL)	5.42 (≈ 1.98 µg/mL)	> 100	2.3 (≈ 0.84 µg/mL)	2.3 (≈ 0.84 µg/mL)	1.56 (≈ 0.57 µg/mL)	3.13 (≈ 1.14 µg/mL)	1.2 (≈ 0.439 µg/mL)	3.13 (≈ 1.14 µg/mL)	1.5 (≈ 0.548 µg/mL)	1.2 (≈ 0.439 µg/mL)	13.7 (≈ 4.99 µg/mL)	1.5 (≈ 0.548 µg/mL)	2.3 (≈ 0.84 µg/mL)	1.5 (≈ 0.548 µg/mL)
NC(CC(=O)c1ccc(Cl)cc1Cl)C(Cl)(Cl)Cl (configuration not stated)	0.39 (≈ 0.131 µg/mL)	> 50	50 (≈ 16.8 µg/mL)	12.5 (≈ 4.19 µg/mL)	17.4 (≈ 5.83 µg/mL)	37.9	12.5 (≈ 4.19 µg/mL)	37 (≈ 12.4 µg/mL)	19 (≈ 6.37 µg/mL)	25 (≈ 8.39 µg/mL)	12.5 (≈ 4.19 µg/mL)	25 (≈ 8.39 µg/mL)	12.5 (≈ 4.19 µg/mL)	0.6 (≈ 0.201 µg/mL)	6.04 (≈ 2.03 µg/mL)	> 50	19 (≈ 6.37 µg/mL)	12.5 (≈ 4.19 µg/mL)
O=C(NCCc1c[nH]c2ccccc12)c1cc2ccccc2oc1=O	0.3 (≈ 0.0997 µg/mL)	> 50	3.13 (≈ 1.04 µg/mL)	0.78 (≈ 0.259 µg/mL)	7.71 (≈ 2.56 µg/mL)	> 100	0.78 (≈ 0.259 µg/mL)	1.56 (≈ 0.518 µg/mL)	1.2 (≈ 0.399 µg/mL)	4.7 (≈ 1.56 µg/mL)	0.78 (≈ 0.259 µg/mL)	1.56 (≈ 0.518 µg/mL)	12.5 (≈ 4.15 µg/mL)	0.6 (≈ 0.199 µg/mL)	4.78 (≈ 1.59 µg/mL)	> 50	0.78 (≈ 0.259 µg/mL)	50 (≈ 16.6 µg/mL)

Reference: ChEMBL document CHEMBL3832761, “MMV Pathogen Box Bioactivity Data” (2017)
